Measurements taken from patent US20070292489A1, “METHOD FOR TREATMENT OF WOUND TREATMENT USING AGANOCIDES” (priority 2006, published 2007).

System: human secondary intention wound
Test: Vacuum-assisted wound treatment combined with intermittent aganocide instillation
Format: in vivo
Settings: pH about 4, 0.9% NaCl, 2-hour pumping at 125 mm Hg
Protocol: A human secondary intention wound approximately 3-4 cm in diameter is fitted with a polyurethane sponge, pore size 400-600 microns cut to the size of the wound and twice the thickness of the wound and covered with an adhesive film, per instructions on the vacuum system. The outlet is connected to an IV bag (500 ml) with a 0.1% sodium 2-dichloroamino-2-methylpropanesulfonate solution adjusted with HCl to a pH of about 4, 0.9% NaCl and elevated to between 0.1 and 1 meter above the wound. A 1-cm hole is punctured in the adhesive film, and a second adhesive film is used to cover the hole, with the second outlet connected to the vacuum pump.
Each cycle consists of three phases: a 2-hour pumping phase when the vacuum (125 mm Hg negative pressure) is connected and the IV bag is disconnected; a 1 second instilling phase when the vacuum is disconnected and the IV bag is connected and the aganoocide is applied to the wound; and a 1 minute holding phase when both vacuum and the IV bag are disconnected.
Each treatment has about 24 cycles and starts with a pumping phase and proceeds for 48 hours. When the treatment is completed, the dressings are changed and the treatment is repeated until full granulation has been promoted and the granulation tissue is within the level of the skin, approximately 30 to 100 days, depending on the depth of the original wound. […]

## CC(C)(CS(=O)(=O)[O-])N(Cl)Cl.[Na+] [Sodium 2-dichloroamino-2-methylpropanesulfonate]
Example 1: 0.1% solution, 1 second instilling, 1 minute holding, about 24 cycles per 48 hours
  wound healing results of the combination treatment regimen compared with vacuum-assisted wound healing without aganocide or aganocide alone: superior wound healing results
Example 2: 0.1% solution, 5 second instilling, 30 minute holding, about 19 cycles per 48 hours
  wound healing results of the combination treatment regimen compared with vacuum-assisted wound healing without aganocide or aganocide alone: superior wound healing results
